Marks after values point to notes of the source that are not given here.
Assays:
[1] = TRO40303 heart level measurement in rats; format: in vivo; conditions: rat, 1 mg/kg i.v. in IL30 10 min before CAO or 10 min before CAR, 5 min post reperfusion, AAR and remainder of left ventricle
Protocol: TRO40303 was administered by intravenous (i.v.) bolus to healthy rats at doses of 0.3, 1, 3 and 10 mg/kg in IL30 under isoflurane gas anaesthesia. A maximum of 0.25 mL of blood was collected into lithium heparin tubes at 5, 15 and 30 min, 1 h, 2 h, 4 h, 8 h and 24 h after drug administration (3 rats per time point). The blood samples were cooled on ice and plasma samples were prepared within 60 min of sampling by centrifugation at 1500 g at 4 °C for 10 min and stored at –20°C until analysis. For heart level measurements, TRO40303 was administrated i.v. to rats undergoing the myocardial infarction procedure at the dose of 1 mg/kg in IL30 either 10 min before CAO or 10 min before CAR. Five min after CAR, rats were anesthetised and sacrificed, hearts were isolated and washed with saline. […] After TRO40303 plasma concentration analysis, TRO40303 plasma AUC(0-∞) (the area under the curve extrapolated from time zero to time infinity), was calculated using Kinetica™, version 4.4.1 (Thermo Electron Corporation, Philadelphia, PA 19103, USA). The results were analyzed in comparison with previous pharmacokinetic data obtained with TRO40303 formulated in HPBCD at 2.5 mg/kg.
Thawed preclinical samples were extracted with acetonitrile, centrifuged, purified on SPEC C2 cartridge (Varian) for the heart samples and analysed along with calibration standards. […]

[2] = Phase I trial pharmacokinetics, single i.v. ascending doses; format: in vivo, human
Protocol: A randomized, double-blind, placebo controlled study was performed to investigate the safety, tolerability and pharmacokinetics of single i.v. ascending doses of TRO40303 in healthy male and post-menopausal female subjects. The choice of the dose and flow rate escalation process is explained in the Result section. Seventy-two healthy volunteers were randomized, with 18 receiving a placebo and 54 an active liposomal formulation containing 20 mg/mL TRO40303 at final doses ranging from 0.5, 1, 2, 3.5, 6, 10 to 13 mg/kg with escalating flow rates from 0.04 mL/min to 35 mL/min. Within each group, 3 or 6 subjects received TRO40303 and 1 or 2 subjects received the same volume of placebo. The sample size was based on the number of doses and flow rates to be investigated. The 6 verum/2 placebo ratio per group is widely used in single ascending dose studies and provides adequate safety and pharmacokinetic information. The 3 verum/1 placebo ratio used in the last groups was chosen only to explore additional flow rates at previously studied doses.
Venous blood samples (5 mL) were collected for determination of TRO40303 concentrations in plasma at pre-dose, end of infusion, then 5 min, 15 min, 30 min, 1 h, 2 h, 4 h, 8 h, 12 h, 16 h, 24 h, 48 h, 72 h and 96 h post end of infusion into heparin–lithium Vacutainer tubes. The blood samples were gently inverted then centrifuged in a refrigerated centrifuge (+4°C) within 30 min after sampling at 1500 g for ca 10 min. The resulting plasma was frozen in two separate labelled polypropylene tubes at –20 ± 5°C until assaying.
For the quantifying TRO40303 levels in human plasma samples, the same method, GLP validated, was used and the analysis was performed at Bertin Pharma (Orleans, France). Analysis was carried out on 1200 Series (Agilent) and Series 200 (Perkin Elmer) systems interfaced to an API 4000 (AB Sciex) MS detector. Calculations were carried out with Analyst 1.4.1 and 1.5.1 (AB Sciex) software.

[3] = human, single i.v., liposomes, 0.5 mg/kg, n = 4
[4] = human, single i.v., liposomes, 0.5 mg/kg, n = 6
[5] = human, single i.v., liposomes, 1 mg/kg, n = 6
[6] = human, single i.v., liposomes, 2 mg/kg, n = 6
[7] = human, single i.v., liposomes, 3.5 mg/kg, n = 9
[8] = human, single i.v., liposomes, 6 mg/kg, n = 11
[9] = human, single i.v., liposomes, 6 mg/kg, n = 12
[10] = human, single i.v., liposomes, 10 mg/kg, n = 9
[11] = human, single i.v., liposomes, 13 mg/kg, n = 6
[12] = human, single i.v., liposomes, over all doses
[13] = liposomes in human, IL30 in rats

CC(C)CCC[C@@H](C)[C@H]1CC[C@H]2[C@@H]3CC/C(=N\O)[C@](C)(CCCO)[C@H]3CC[C@]12C [TRO40303, 3,5-seco-4-nor-cholestan-5-one oxime-3-ol]
concentration of TRO40303 in heart tissue [1]: ~ 1 μg/g
dose proportionality of Cmax and AUC(0-∞) ([2]; human, from 0.5 to 6 mg/kg): linear
hyper-proportionality of Cmax and AUC(0-∞) ([2]; human, from 6 to 13 mg/kg): ~ 1.5 fold
AUC(0-∞) Mean [2, 3]: 15.5* μg.h/mL
AUC(0-∞) Min-max [2, 3]: 9130 to 20900 ng·h/mL
C5min Min-max [2, 4]: 1.59 to 3.92 µg/mL
CL Mean [2, 4]: 0.598 mL/min/kg
CL Min-max [2, 4]: 0.399 to 0.912 mL/min/kg
Cmax Mean [2, 4]: 3320 ng/mL
Cmax Min-max [2, 4]: 2310 to 4850 ng/mL
Terminal t1/2 Mean [2, 4]: 29.5 h
Terminal t1/2 Min-max [2, 4]: 27.0 to 31.5 h
Vz Mean [2, 4]: 1.54 L/kg
Vz Min-max [2, 4]: 0.00103 to 0.00249 L/kg
C5min Mean ([2]; human, single i.v., liposomes, 0.5 mg/kg, n = 6, 5 min post end of infusion): 2.58 µg/mL
AUC(0-∞) Mean [2, 5]: 34.5 µg·h/mL
AUC(0-∞) Min-max [2, 5]: 21000 to 43000 ng·h/mL
C5min Min-max [2, 5]: 5.98 to 12.5 µg/mL
CL Mean [2, 5]: 0.509 mL/min/kg
CL Min-max [2, 5]: 0.388 to 0.792 mL/min/kg
Cmax Mean [2, 5]: 10300 ng/mL
Cmax Min-max [2, 5]: 6060 to 14100 ng/mL
Terminal t1/2 Mean [2, 5]: 25.1 h
Terminal t1/2 Min-max [2, 5]: 22.9 to 26.8 h
Vz Mean [2, 5]: 1.11 L/kg
Vz Min-max [2, 5]: 0.000899 to 0.00177 L/kg
C5min Mean ([2]; human, single i.v., liposomes, 1 mg/kg, n = 6, 5 min post end of infusion): 9.26 µg/mL
C5min Min-max ([2]; human, single i.v., liposomes, 2 mg/kg, n = 5): 16.7 to 26.8 µg/mL
C5min Mean ([2]; human, single i.v., liposomes, 2 mg/kg, n = 5, 5 min post end of infusion): 23.6** μg/mL
AUC(0-∞) Mean [2, 6]: 68.6 µg·h/mL
AUC(0-∞) Min-max [2, 6]: 50700 to 81500 ng·h/mL
CL Mean [2, 6]: 0.499 mL/min/kg
CL Min-max [2, 6]: 0.409 to 0.657 mL/min/kg
Cmax Mean [2, 6]: 23100 ng/mL
Cmax Min-max [2, 6]: 16000 to 31100 ng/mL
Terminal t1/2 Mean [2, 6]: 26.4 h
Terminal t1/2 Min-max [2, 6]: 24.3 to 28.7 h
Vz Mean [2, 6]: 1.14 L/kg
Vz Min-max [2, 6]: 0.00091 to 0.00152 L/kg
AUC(0-∞) Mean [2, 7]: 109 µg·h/mL
AUC(0-∞) Min-max [2, 7]: 81000 to 163000 ng·h/mL
C5min Min-max [2, 7]: 37.1 to 68.7 µg/mL
CL Mean [2, 7]: 0.560 mL/min/kg
CL Min-max [2, 7]: 0.357 to 0.721 mL/min/kg
Cmax Mean [2, 7]: 51700 ng/mL
Cmax Min-max [2, 7]: 37700 to 68700 ng/mL
Terminal t1/2 Mean [2, 7]: 25.1 h
Terminal t1/2 Min-max [2, 7]: 23.1 to 27.7 h
Vz Mean [2, 7]: 1.22 L/kg
Vz Min-max [2, 7]: 0.000723 to 0.00152 L/kg
C5min Mean ([2]; human, single i.v., liposomes, 3.5 mg/kg, n = 9, 5 min post end of infusion): 50.2 µg/mL
AUC(0-∞) Mean [2, 8]: 229*** μg.h/mL
AUC(0-∞) Min-max [2, 8]: 147000 to 307000 ng·h/mL
C5min Min-max [2, 9]: 51.6 to 266 µg/mL
CL Mean [2, 9]: 0.460 mL/min/kg
CL Min-max [2, 9]: 0.326 to 0.680 mL/min/kg
Cmax Mean [2, 9]: 118000 ng/mL
Cmax Min-max [2, 9]: 59500 to 266000 ng/mL
Terminal t1/2 Mean [2, 9]: 24.4 h
Terminal t1/2 Min-max [2, 9]: 21.2 to 30.0 h
Vz Mean [2, 9]: 0.964 L/kg
Vz Min-max [2, 9]: 0.000611 to 0.00134 L/kg
C5min Mean ([2]; human, single i.v., liposomes, 6 mg/kg, n = 12, 5 min post end of infusion): 112 µg/mL
AUC(0-∞) Mean [2, 10]: 408 µg·h/mL
AUC(0-∞) Min-max [2, 10]: 303000 to 501000 ng·h/mL
C5min Min-max [2, 10]: 120 to 279 µg/mL
CL Mean [2, 10]: 0.422 mL/min/kg
CL Min-max [2, 10]: 0.332 to 0.549 mL/min/kg
Cmax Mean [2, 10]: 194000 ng/mL
Cmax Min-max [2, 10]: 130000 to 279000 ng/mL
Terminal t1/2 Mean [2, 10]: 25.3 h
Terminal t1/2 Min-max [2, 10]: 19.3 to 30.2 h
Vz Mean [2, 10]: 0.929 L/kg
Vz Min-max [2, 10]: 0.000624 to 0.00144 L/kg
C5min Mean ([2]; human, single i.v., liposomes, 10 mg/kg, n = 9, 5 min post end of infusion): 193 µg/mL
AUC(0-∞) Mean [2, 11]: 651 µg·h/mL
AUC(0-∞) Min-max [2, 11]: 468000 to 814000 ng·h/mL
C5min Min-max [2, 11]: 148 to 371 µg/mL
CL Mean [2, 11]: 0.347 mL/min/kg
CL Min-max [2, 11]: 0.266 to 0.463 mL/min/kg
Cmax Mean [2, 11]: 259000 ng/mL
Cmax Min-max [2, 11]: 167000 to 371000 ng/mL
Terminal t1/2 Mean [2, 11]: 24.4 h
Terminal t1/2 Min-max [2, 11]: 20.1 to 28.6 h
Vz Mean [2, 11]: 0.723 L/kg
Vz Min-max [2, 11]: 0.000599 to 0.000989 L/kg
C5min Mean ([2]; human, single i.v., liposomes, 13 mg/kg, n = 6, 5 min post end of infusion): 248 µg/mL
Vz [2, 12]: 1.1 L/kg
mean penultimate thalf (when at least 80% of drug was eliminated) [2, 12]: 4 h
mean terminal thalf [2, 12]: 25 h
AUC(0-∞) in humans compared to rats for the same dose [2, 13]: ~ 7 fold
C5min in humans compared to rats for the same dose [2, 13]: ~ 2 fold

Reference: publication PMC3923730 (Journal of Translational Medicine, 2014)
